Source: patent US20240124503A1, “HETEROAROMATIC PHOSPHONIUM SALTS AND THEIR USE TREATING CANCER” (FLORATEK PHARMA S.A., priority 2021, published 2024)

Tests used:
Format in all cases: cell-based
NCI-H460 = assay: Cell viability assay, NCI-H460; conditions: Homo sapiens; lung carcinoma cell line NCI-H460
Experimental: Antitumor activity of the compounds and doxorubicin as a positive control was assessed by using the CellTiter-Blue Cell Viability Assay (Promega, #G8082) or CellTiter-Glow® Luminescent Cell Viability assay (Promega #G7572) according to the manufacturer's instructions. The compounds were tested at 5 or 6 concentrations in half-log increments (highest concentration 30 μM or 100 μM) in duplicate or triplicate well conditions.
Tumor cells were grown at 37° C. in a humidified atmosphere with 5% CO2 in RPMI 1640 or DMEM medium, supplemented with 10% (v/v) fetal calf serum and 50 μg/ml gentamicin for up to 20 passages, and were passaged once or twice weekly. Cells were harvested using TrypLE or PBS buffer containing 1 mM EDTA, and the percentage of viable cells was determined using a CASY Model TI cell counter (OMNI Life Science). Cells were harvested from exponential phase cultures, counted and plated in 96 well flat-bottom microtiter plates at a cell density depending on the cell line's growth rate (4,000-20,000 cells/well depending on the cell line's growth rate, up to 60,000 for hematological cancer cell lines) in RPMI 1640 or DMEM medium supplemented with 10% (v/v) fetal calf serum and 50 μg/ml gentamicin (140 μl/well). […] Viability of cells was quantified by the CellTiter-Blue® cell viability assay (Promega G8081) or CellTiter-Glow® Luminescent Cell Viability assay (Promega #G7572). […]

stomach PDX = assay: Cell viability, stomach PDX (panel statement); conditions: text summary of Table 22; read-out: IC50, stomach PDX growth
Experimental: (§1) PDX-derived cell cultures were obtained from tumors explanted from mice and isolated by mechanical and enzymatic dissociation. […] Cells were harvested and seeded in 96-wells plates at a density of 1.25 to 5×10^3 cells/well for cytotoxicity assays. Cells were incubated 48 h at 37° C. prior to addition of test molecules and vehicle (DMSO, 0.1%) at desired final concentrations. Cell viability was assessed before drugs' addition (To) and 5 days after test molecules addition by measuring ATP cell content using CellTiter-Glo® Luminescent Cell Viability Assay (Promega) according to the manufacturer's instructions. Luciferase activity was measured on a luminometer (PerkinElmer® EnVision™). Each concentration of compounds was tested in triplicate.
(§2) Viability was calculated as a percentage of ATP value compared to vehicle treated controls.
(§3) For PDX primary cell cultures, the tumour tissue was washed with PBS containing antibiotic-antimycotic and non-tumour tissue and necrotic tumour tissues were separated. The tumour tissue was transferred to a new dish and cut into 1˜2 mm^3 fragments, resuspended in RPMI-1640 medium and centrifuged at 1,200 rpm for 6 min at room temperature. The pelleted material was resuspended with 15 mL of Tumour Cell Digestion Solution and incubated at 37° C. for 1 hour with agitation. […]

breast PDX = assay: Cell viability, breast PDX (panel statement); conditions: Table 5; read-out: IC50, growth of breast PDX
Experimental: as §1, §2, §3

IC50 (NCI-H460): 8.63 µM
SMILES: COc1c(O)ccc2c(=O)c(O)c(-c3ccc(CCCC[P+](c4ccccc4)(c4ccccc4)c4ccccc4)cc3)oc12 [SND190, (4-(4-(3,7-Dihydroxy-8-methoxy-4-oxo-4H1-chromen-2-yl)phenyl)butyl)triphenylphosphonium bromide]
IC50 (stomach PDX): < 20 µM
IC50 (breast PDX): < 20 µM
